Data published in patent US20260337208A1, “HETEROCYCLIC DERIVATIVES AS JANUS KINASE INHIBITORS” (CHIESI FARMACEUTICI S.P.A., priority 2022, published 2026).
One block for each molecule: values may come before it.

What was measured:
[1] = biological target: JAK2 (Homo sapiens, UniProt O60674); test: Biochemical potency on JAK2, TR-FRET (LANCE Ultra kinase assay); settings: ATP corresponding to Km; cell-free; read-out: JAK2 inhibitory activity (pIC50) (converted)
Experimental: (§1) The objective of this study was to assess the capability of compounds to inhibit all 4 JAK isoforms activity in a cell-free environment. Assay for JAK 1, JAK 2, JAK 3 and TYK2 were performed by Time-resolved fluorescence resonance energy transfer (TR-FRET) technology. It consists in the interaction of two labelled binding partners detected by the energy transfer from an excited donor to an acceptor dye and measurement of light emission by the acceptor dye. LANCE Ultra kinase assay was used. In presence of JAK 1, JAK 2, JAK 3 and TYK2 kinases and ATP (corresponding to Km), the ULight peptide substrate (LANCE Ulight-JAK-1 (Tyr1023) Peptide, Perkin Elmer, TRF0121) is phosphorylated. It is then captured by Eu-anti-phospho-substrate antibody (LANCE Eu-W1024 Anti-phosphotyrosine (PT66), Perkin Elmer, AD0069), which bring the Eu-chelate donor and ULight acceptor dyes into close proximity. Upon excitation at 320 nm, the Eu-chelate transfers its energy to the ULight dye, resulting in a fluorescent light emission at 665 nm.
(§2) Serial dilutions of compounds in pure DMSO are prepared from 10 mM DMSO stock solutions. Compounds were tested in 384-well plate for 11 consecutive 5-fold dilutions starting from 20 μM highest concentration (20 μM-[…]). 200 nL of compound were transferred from mother plate to test plate by using Mosquito (TTP labtech). Assay was performed in 384-well Perkin Elmer test plate in 20 μL assay volume (kinase reaction) and 40 μL total volume (stopping reagent and antibody detection reagents). In 10 μL of substrate solution (peptide+ATP) 30/50/20/10 nM of peptide and 20/0.7/0.2/12 μM of ATP were added for JAK 1, JAK 2, JAK 3 and TYK2 respectively. 10 μL of enzyme solution was added to kinase reaction at these concentrations: 0.15/0.083/0.025/0.144 ng/μL of JAK 1, JAK 2, JAK 3 and TYK2 respectively. After shaking and 1.5 h of incubation at r.t., 20 μL of Stop (10 μL EDTA) and Detection mixture (10 μL Europium-anti-phospho antibody, final: 0.5 nM) were added. Reading was performed after 1 h of incubation on a En Vision 2104 reader (Perkin Elmer).
(§3) Calculation of IC50 data, curves and QC analysis was performed by using Excel tool and GraphPadPrism software, v9. Briefly, individual concentration-effect curves are generated by plotting the logarithm of the tested concentration of tested compounds (X) vs. corresponding percent inhibition values (Y) using least squares (ordinary) fit. Best fit IC50 values are calculated using Log (inhibitor) vs. normalized response—Variable slope equation, where Y=100/(1+10^((LogIC50−X)*HillSlope)). QC criteria parameters (Z′, S:B, R2, HillSlope) were checked for every IC50 curve. Calculation of IC50 data, curves and QC analysis were made using Excel tools and GraphPadPrism software. QC criteria parameters: Z′≥0.5, Hill Slope range 0.5 to 5, S:B>2.

[2] = biological target: TYK2 (Homo sapiens, UniProt P29597); test: Biochemical potency on Tyk2, TR-FRET (LANCE Ultra kinase assay); settings: ATP corresponding to Km; cell-free; read-out: TYK2 inhibitory activity (pIC50) (converted)
Chain of TYK2 (P29597 whole entry): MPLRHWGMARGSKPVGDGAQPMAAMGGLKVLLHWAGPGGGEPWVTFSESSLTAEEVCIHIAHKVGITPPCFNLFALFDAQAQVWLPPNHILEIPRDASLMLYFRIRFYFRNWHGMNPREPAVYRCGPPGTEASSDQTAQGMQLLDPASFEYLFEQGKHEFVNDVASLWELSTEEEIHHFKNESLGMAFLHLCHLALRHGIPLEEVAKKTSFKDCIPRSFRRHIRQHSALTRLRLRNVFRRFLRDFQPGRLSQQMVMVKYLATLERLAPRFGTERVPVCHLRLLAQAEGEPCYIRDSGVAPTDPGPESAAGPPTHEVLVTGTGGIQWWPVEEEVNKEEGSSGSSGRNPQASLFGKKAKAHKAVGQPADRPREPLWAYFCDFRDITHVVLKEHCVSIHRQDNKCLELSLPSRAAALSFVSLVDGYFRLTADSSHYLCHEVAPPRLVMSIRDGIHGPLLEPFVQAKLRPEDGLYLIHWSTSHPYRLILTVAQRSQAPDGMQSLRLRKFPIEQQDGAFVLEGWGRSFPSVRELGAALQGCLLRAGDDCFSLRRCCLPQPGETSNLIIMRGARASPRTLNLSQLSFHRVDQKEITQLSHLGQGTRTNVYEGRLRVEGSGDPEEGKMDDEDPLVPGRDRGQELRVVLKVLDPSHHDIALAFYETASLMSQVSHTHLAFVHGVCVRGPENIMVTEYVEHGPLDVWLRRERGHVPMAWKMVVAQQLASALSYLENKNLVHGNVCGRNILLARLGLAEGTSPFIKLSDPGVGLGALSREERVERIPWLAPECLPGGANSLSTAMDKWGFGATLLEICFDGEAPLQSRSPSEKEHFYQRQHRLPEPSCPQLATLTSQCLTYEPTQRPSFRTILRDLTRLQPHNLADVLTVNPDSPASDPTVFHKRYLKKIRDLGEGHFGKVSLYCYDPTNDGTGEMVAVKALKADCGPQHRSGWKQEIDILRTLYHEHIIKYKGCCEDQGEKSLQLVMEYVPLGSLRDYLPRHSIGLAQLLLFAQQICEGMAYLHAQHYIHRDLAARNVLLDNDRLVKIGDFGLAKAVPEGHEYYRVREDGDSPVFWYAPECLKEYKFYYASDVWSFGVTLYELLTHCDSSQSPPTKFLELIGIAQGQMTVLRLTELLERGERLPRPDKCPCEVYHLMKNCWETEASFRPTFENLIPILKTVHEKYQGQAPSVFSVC
Experimental: as §1, §2, §3

[3] = biological target: T1, JAK3 (Homo sapiens, UniProt P52333); test: Biochemical potency on JAK3, TR-FRET (LANCE Ultra kinase assay); settings: ATP corresponding to Km; cell-free; read-out: JAK3 inhibitory activity (pIC50) (converted)
T1 sequence (P52333 1-1124): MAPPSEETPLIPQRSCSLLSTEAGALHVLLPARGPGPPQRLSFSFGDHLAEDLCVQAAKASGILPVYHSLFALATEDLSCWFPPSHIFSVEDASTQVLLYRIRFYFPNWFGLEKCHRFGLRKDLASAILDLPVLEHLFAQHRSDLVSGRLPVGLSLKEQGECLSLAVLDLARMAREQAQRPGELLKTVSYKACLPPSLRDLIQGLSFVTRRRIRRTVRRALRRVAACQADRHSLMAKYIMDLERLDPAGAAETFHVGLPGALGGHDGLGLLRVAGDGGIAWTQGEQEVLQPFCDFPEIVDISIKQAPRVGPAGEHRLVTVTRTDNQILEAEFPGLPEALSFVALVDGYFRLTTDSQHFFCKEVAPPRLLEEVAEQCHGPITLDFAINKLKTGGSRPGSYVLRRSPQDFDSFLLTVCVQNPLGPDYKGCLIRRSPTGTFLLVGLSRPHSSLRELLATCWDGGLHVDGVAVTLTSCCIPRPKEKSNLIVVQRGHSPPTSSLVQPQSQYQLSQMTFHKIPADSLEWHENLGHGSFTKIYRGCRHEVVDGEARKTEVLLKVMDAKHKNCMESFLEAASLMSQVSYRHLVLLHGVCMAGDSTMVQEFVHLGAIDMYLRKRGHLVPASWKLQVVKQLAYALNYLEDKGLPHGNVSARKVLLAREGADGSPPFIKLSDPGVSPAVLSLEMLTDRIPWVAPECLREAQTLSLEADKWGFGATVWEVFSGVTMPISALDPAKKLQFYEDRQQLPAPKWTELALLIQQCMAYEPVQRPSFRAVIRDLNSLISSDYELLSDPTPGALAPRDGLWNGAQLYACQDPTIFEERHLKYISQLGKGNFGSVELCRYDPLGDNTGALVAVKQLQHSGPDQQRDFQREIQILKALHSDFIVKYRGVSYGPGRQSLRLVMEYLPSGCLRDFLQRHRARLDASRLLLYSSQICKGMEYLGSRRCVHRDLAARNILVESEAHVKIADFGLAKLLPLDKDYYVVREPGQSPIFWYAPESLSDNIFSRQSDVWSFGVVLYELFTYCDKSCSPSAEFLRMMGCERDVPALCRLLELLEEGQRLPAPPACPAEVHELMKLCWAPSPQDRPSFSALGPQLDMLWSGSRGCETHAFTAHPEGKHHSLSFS
Experimental: as §1, §2, §3

[4] = biological target: JAK1 (Homo sapiens, UniProt P23458); test: Biochemical potency on JAK1, TR-FRET (LANCE Ultra kinase assay); settings: ATP corresponding to Km; cell-free; read-out: JAK1 inhibitory activity (pIC50) (converted)
Chain of JAK1 (P23458 whole entry): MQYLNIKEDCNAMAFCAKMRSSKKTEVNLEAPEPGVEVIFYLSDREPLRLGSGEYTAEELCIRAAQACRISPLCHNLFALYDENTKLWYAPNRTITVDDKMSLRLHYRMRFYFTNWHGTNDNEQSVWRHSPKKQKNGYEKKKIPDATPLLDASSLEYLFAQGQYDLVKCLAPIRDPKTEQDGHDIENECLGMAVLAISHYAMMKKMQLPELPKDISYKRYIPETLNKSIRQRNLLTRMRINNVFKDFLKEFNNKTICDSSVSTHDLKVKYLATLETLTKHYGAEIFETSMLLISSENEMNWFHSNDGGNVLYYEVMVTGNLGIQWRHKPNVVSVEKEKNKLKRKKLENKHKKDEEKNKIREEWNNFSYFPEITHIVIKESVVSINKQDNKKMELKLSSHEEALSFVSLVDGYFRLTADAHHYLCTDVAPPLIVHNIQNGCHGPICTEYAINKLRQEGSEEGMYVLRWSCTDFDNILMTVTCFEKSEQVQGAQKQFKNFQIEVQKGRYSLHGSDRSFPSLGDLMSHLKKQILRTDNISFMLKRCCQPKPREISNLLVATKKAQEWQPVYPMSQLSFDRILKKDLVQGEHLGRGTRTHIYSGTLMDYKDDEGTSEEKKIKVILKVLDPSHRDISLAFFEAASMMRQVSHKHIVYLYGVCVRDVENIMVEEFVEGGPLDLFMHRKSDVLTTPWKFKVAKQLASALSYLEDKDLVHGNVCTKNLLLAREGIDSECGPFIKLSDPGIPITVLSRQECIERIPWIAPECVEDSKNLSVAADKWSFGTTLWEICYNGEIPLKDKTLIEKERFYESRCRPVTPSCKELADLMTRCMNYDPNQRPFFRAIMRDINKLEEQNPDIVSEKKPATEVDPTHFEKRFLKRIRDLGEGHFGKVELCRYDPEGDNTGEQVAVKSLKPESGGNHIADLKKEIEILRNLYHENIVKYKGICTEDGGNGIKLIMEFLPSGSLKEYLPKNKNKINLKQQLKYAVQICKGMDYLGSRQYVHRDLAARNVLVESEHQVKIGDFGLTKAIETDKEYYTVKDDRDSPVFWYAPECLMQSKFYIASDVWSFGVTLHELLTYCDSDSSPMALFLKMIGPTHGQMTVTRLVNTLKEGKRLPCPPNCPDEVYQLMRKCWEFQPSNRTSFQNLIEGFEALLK
Experimental: as §1, §2, §3

[5] = system: pSTAT6 in BEAS-2B human cell line; test: Inhibition of IL-13 induced pSTAT6 in BEAS; assay type: cell-based; settings: for IC50: Homo sapiens, BEAS-2B, 0.5 h, parent compound; for IC50 / pIC50 (BEAS) predicted acid metabolite: IL-13 trigger, 30 min; for Fold difference parent vs predicted acid metabolite: ratio=IC50 predicted acid metabolite/IC50 ester
Experimental: BEAS-2B human cell line was seeded (100.000 cells/well) and incubated for 48 h at 37° C., 5% CO2, 95% humidity. Compounds were added and incubated 30 min followed by IL-13 as trigger. After 30 min incubation, cells were lysed and pSTAT6 determined by Fastscan phospho-stat6 (Tyr641) sandwich ELISA kit (cell signaling). Inhibitors were tested at 11 consecutive 5-fold dilutions starting from 10 μM (10 μM-[…]) in duplicate. Calculation of IC50 data, curves and QC analysis were made using Excel tools and GraphPadPrism software. QC criteria parameters: Z′≥0.35, Hill Slope range 0.5 to 5, S:B>2.

Chain of JAK2 (O60674 whole entry, canonical isoform): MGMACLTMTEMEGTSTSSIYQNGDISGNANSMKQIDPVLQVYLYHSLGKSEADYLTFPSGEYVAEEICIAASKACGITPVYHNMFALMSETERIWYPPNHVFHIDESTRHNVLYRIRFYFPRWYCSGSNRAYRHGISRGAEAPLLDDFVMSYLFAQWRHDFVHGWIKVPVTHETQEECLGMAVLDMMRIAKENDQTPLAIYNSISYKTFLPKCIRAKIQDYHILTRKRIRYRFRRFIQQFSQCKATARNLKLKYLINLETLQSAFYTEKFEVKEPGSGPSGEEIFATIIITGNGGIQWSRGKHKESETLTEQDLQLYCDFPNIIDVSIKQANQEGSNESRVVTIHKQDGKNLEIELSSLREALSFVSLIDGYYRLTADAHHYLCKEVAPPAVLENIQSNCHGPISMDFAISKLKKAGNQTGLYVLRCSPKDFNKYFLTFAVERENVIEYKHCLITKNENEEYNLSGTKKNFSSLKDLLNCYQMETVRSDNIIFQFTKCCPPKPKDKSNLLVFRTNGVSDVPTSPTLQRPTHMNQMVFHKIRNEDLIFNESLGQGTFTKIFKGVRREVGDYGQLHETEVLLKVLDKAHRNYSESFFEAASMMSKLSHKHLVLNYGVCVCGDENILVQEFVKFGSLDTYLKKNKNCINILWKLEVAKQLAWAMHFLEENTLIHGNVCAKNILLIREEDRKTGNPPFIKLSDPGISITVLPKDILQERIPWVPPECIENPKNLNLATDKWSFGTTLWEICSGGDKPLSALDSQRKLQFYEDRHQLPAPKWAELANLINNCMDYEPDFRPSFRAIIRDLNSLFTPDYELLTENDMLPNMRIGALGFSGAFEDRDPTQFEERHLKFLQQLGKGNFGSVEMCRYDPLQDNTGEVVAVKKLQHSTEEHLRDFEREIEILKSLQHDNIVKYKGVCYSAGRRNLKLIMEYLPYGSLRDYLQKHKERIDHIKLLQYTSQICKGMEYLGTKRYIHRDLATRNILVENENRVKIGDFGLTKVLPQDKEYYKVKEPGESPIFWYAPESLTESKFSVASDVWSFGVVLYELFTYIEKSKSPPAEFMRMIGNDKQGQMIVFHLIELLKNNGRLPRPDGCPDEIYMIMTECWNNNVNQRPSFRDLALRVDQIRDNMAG

IC50 [1]: ≤ 5.01 nM
IC50 [2]: 5.01 to 50.1 nM
IC50 [3]: ≤ 5.01 nM
IC50 [4]: ≤ 5.01 nM
SMILES: COc1cc2c(cc1-n1nc(C(=O)NCCN3CCC(C(=O)O[C@@H]4CN(C)C[C@H]4F)CC3)c3cnc(-c4cnn5cccnc45)cc31)OCCN2 (relative stereo) [Example 51, (3R*,4R*)-4-fluoro-1-methylpyrrolidin-3-yl 1-(2-(1-(6-methoxy-3,4-dihydro-2H-benzo[b][1,4]oxazin-7-yl)-6-(pyrazolo[1,5-a]pyrimidin-3-yl)-1H-pyrazolo[4,3-c]pyridine-3-carboxamido)ethyl)piperidine-4-carboxylate]
IC50 [5]: 5.01 to 50.1 nM
Fold difference parent vs predicted acid metabolite [5]: kkk (200>ratio≥100)

IC50 [1]: ≤ 5.01 nM
IC50 [2]: ≤ 5.01 nM
IC50 [3]: ≤ 5.01 nM
IC50 [4]: ≤ 5.01 nM
SMILES: CCOC(=O)C1CCN(CCNC(=O)c2nn(-c3cc4c(cc3OC)NCCS4)c3cc(-c4cnn5cccnc45)ncc23)CC1 [Example 1, ethyl 1-(2-(1-(6-methoxy-3,4-dihydro-2H-benzo[b][1,4]thiazin-7-yl)-6-(pyrazolo[1,5-a]pyrimidin-3-yl)-1H-pyrazolo[4,3-c]pyridine-3-carboxamido)ethyl)piperidine-4-carboxylate]
IC50 [5]: ≤ 5.01 nM
Fold difference parent vs predicted acid metabolite [5]: kk (100>ratio≥10)

IC50 [1]: ≤ 5.01 nM
IC50 [2]: 5.01 to 50.1 nM
IC50 [3]: ≤ 5.01 nM
IC50 [4]: ≤ 5.01 nM
SMILES: CCOC(=O)[C@H]1C[C@@H](OC(=O)Nc2nn(-c3cc4c(cc3OC)NCCS4)c3cc(-c4cnn5cccnc45)ncc23)C1 [Example 2, ethyl (1s,3s)-3-(((1-(6-methoxy-3,4-dihydro-2H-benzo[b][1,4]thiazin-7-yl)-6-(pyrazolo[1,5-a]pyrimidin-3-yl)-1H-pyrazolo[4,3-c]pyridin-3-yl)carbamoyl)oxy)cyclobutane-1-carboxylate]
IC50 [5]: 5.01 to 50.1 nM

SMILES: COc1cc2c(cc1-n1nc(C(=O)NCCN3CCC(C(=O)O)CC3)c3cnc(-c4cnn5cccnc45)cc31)OCCN2 [Example A1, 1-(2-(1-(6-methoxy-3,4-dihydro-2H-benzo[b][1,4]oxazin-7-yl)-6-(pyrazolo[1,5-a]pyrimidin-3-yl)-1H-pyrazolo[4,3-c]pyridine-3-carboxamido)ethyl)piperidine-4-carboxylic acid, reference compound]
pIC50 (BEAS) predicted acid metabolite [5]: § (pIC50<6.3)

SMILES: COc1cc2c(cc1-n1nc(C(=O)NCCN3CCC(C(=O)O)CC3)c3cnc(-c4cnn5cccnc45)cc31)SCCN2 [Example A2, reference compound]
pIC50 (BEAS) predicted acid metabolite [5]: §§ (7.3>pIC50≥6.3)

SMILES: COc1cc2c(cc1-n1nc(C(=O)NCCN3CC[C@H](C(=O)O)C3)c3cnc(-c4cnn5cccnc45)cc31)OCCN2 [Example A3, reference compound]
pIC50 (BEAS) predicted acid metabolite [5]: § (pIC50<6.3)

SMILES: COc1cc2c(cc1-n1nc(C(=O)NCCN3CC[C@@H](C(=O)O)C3)c3cnc(-c4cnn5cccnc45)cc31)OCCN2 [Example A4, reference compound]
pIC50 (BEAS) predicted acid metabolite [5]: § (pIC50<6.3)

SMILES: COc1cc2c(cc1-n1nc(NC(=O)OCCN3CCC(C(=O)O)CC3)c3cnc(-c4cnn5cccnc45)cc31)SCCN2 [Example A5, reference compound]
pIC50 (BEAS) predicted acid metabolite [5]: §§ (7.3>pIC50≥6.3)

SMILES: COc1cc2c(cc1-n1nc(NC(=O)OCC(=O)O)c3cnc(-c4cnn5cccnc45)cc31)OCCN2 [Example A6, reference compound]
pIC50 (BEAS) predicted acid metabolite [5]: § (pIC50<6.3)

SMILES: COc1cc2c(cc1-n1nc(NC(=O)O[C@H]3C[C@@H](C(=O)O)C3)c3cnc(-c4cnn5cccnc45)cc31)OCCN2 [Example A7, reference compound]
pIC50 (BEAS) predicted acid metabolite [5]: § (pIC50<6.3)

SMILES: COc1cc2c(cc1-n1nc(NC(=O)OCCN3CCC(C(=O)O)CC3)c3cnc(-c4cnn5cccnc45)cc31)OCCN2 [Example A8, reference compound]
pIC50 (BEAS) predicted acid metabolite [5]: § (pIC50<6.3)

SMILES: COc1cc2c(cc1-n1nc(C(=O)O)c3cnc(-c4cnn5cccnc45)cc31)OCCN2 [Example A9, 1-(6-Methoxy-3,4-dihydro-2H-benzo[b][1,4]oxazin-7-yl)-6-(pyrazolo[1,5-a]pyrimidin-3-yl)-1H-pyrazolo[4,3-c]pyridine-3-carboxylic acid, reference compound]
pIC50 (BEAS) predicted acid metabolite [5]: § (pIC50<6.3)

SMILES: COc1cc2c(cc1-n1nc(NC(=O)OCC(=O)O)c3cnc(-c4cnn5cccnc45)cc31)SCCN2 [Example A10, 2-(((1-(6-Methoxy-3,4-dihydro-2H-benzo[b][1,4]thiazin-7-yl)-6-(pyrazolo[1,5-a]pyrimidin-3-yl)-1H-pyrazolo[4,3-c]pyridin-3-yl)carbamoyl)oxy)acetic acid, reference compound]
pIC50 (BEAS) predicted acid metabolite [5]: § (pIC50<6.3)

SMILES: COc1cc2c(cc1-n1nc(C(=O)NCCN3CCC(C(=O)O)CC3)c3cnc(Nc4ncc[nH]c4=O)cc31)OCCN2 [Example A11, reference compound]
pIC50 (BEAS) predicted acid metabolite [5]: § (pIC50<6.3)

SMILES: COc1cc2c(cc1-n1nc(C(=O)NCCN3CCC(CC(=O)O)CC3)c3cnc(-c4cnn5cccnc45)cc31)OCCN2 [Example A12, 2-(1-(2-(1-(6-methoxy-3,4-dihydro-2H-benzo[b][1,4]oxazin-7-yl)-6-(pyrazolo[1,5-a]pyrimidin-3-yl)-1H-pyrazolo[4,3-c]pyridine-3-carboxamido)ethyl)piperidin-4-yl)acetic acid, reference compound]
pIC50 (BEAS) predicted acid metabolite [5]: § (pIC50<6.3)
